Entries after “also recorded” stand apart in the source; their conditions may differ. Read-outs that look alike come from different tables or passages of the source. Square brackets hold non-standard residues; d marks the D form. Ends that are not written are not given here. Where only a bound is given, the exact number is not on record here.

The source of these data is patent publication US9539300B2, “Modulating disease through genetic engineering of plants” (The Regents of the University of California, priority 2012, dated 2017).

In data set [1] the test system is human artery wall cells. Conditions: cited from earlier work; for inhibition of LDL-induced MCP-1 production by cultured human artery wall cells: Datta et al. (2001); for inhibiting monocyte chemotactic activity production by human artery wall cells exposed to human LDL: FIG. 1, adapted from Datta et al. (2001).
Data set [2] has as its system mice. The note with it: mouse, in vivo; cited from earlier work.
Data set [3] deals with LDLR−/− mice. The note with it: cited from earlier work; for intact peptide in plasma after oral administration: mouse, in vivo; for inflammatory properties of HDL and LDL in a cell-based assay: single dose 5 mg/kg by stomach tube, four hours, 5 mg/kg.
For data set [4] the following is noted: in vivo; cited from earlier work.
Data set [5] concerns LDL-induced monocyte chemoattractant protein-1 (MCP-1) production by cultured human artery wall cells. The note with it: cited from earlier work.
For data set [6], the system named is apoE−/− mice made diabetic. The note with it: oral administration; cited from earlier work.
In data set [7] the test system is cholesterol-fed rabbits. The note with it: 10 mg/kg/day; cited from earlier work.
Data set [8] relates to LDLR−/− mice. Conditions: cited from earlier work.
For data set [9], the system named is enzymes involved in the formation of LPA. The data set is described as follows: Microarray of gene expression in the small intestine. The note with it: Western Diet or chow, D-4F in drinking water. Format: in vivo, mice. How it is done:
To explore the mechanism of action, a microarray experiment to determine gene expression levels in the small intestine from mice fed the Western Diet or a chow diet and given or not given D-4F in their drinking water was performed. It was previously shown that D-4F administration reduces LPA levels similar to transgenic 6F tomatoes.

Data set [10] has as its system apolipoprotein (apo)E null mice. The note with it: cited from earlier work.
Data set [11] can be described thus: Identification and quantification of 6F in small intestine and plasma. In kind it is in vivo, mice. On the procedure: Female LDLR−/− mice 8-9 months of age (n=6) were fasted overnight and fed WD with transgenic 6F lyophilized tomato powder added to WD to provide 900 μg of 6F in 2 grams of diet. Over a period of 30-90 minutes, each mouse ate all of the 2 grams of diet. Approximately 2 hours after finishing the food the mice were bled and the small intestine was obtained (including contents), homogenized in acetonitrile:water (1:1), chromatographed by HPLC and subjected to SDS PAGE as described in Materials and Methods of Example 3. Plasma was lyophilized and resuspended in acetonitrile:water (1:1), chromatographed by HPLC and subjected to SDS PAGE as described in Materials and Methods of Example 3. […] The lanes were scanned for quantification as described in Materials and Methods of Example 3.
For analysis of the small intestine, 200 mg of small intestine (including contents) were homogenized in 10 mL of acetonitrile:water (1:1) and the homogenates were lyophilized and re-suspended in 400 μL of acetonitrile:water (1:1). […] Samples were run on HPLC using a C-18 Reverse Phase analytical column and a gradient solvent system of acetonitrile: water (30% to 80% in 20 min) in the presence of 0.1% TFA and monitored at 280 nm. […]
The data presented above indicate that the peptide in the transgenic 6F tomatoes is acting in the small intestine. […] No 6F peptide was detected in the plasma of any of the six mice. […]

Data set [12] relates to mouse model of ovarian cancer. The note with it: cited from earlier work.
The subject of data set [13] is apoE−/− mice. The note with it: cited from earlier work.
For data set [14], the system named is mice. The data set is described as follows: 4F peptide without end groups in mice. In kind it is in vivo. From the text:
The 4F peptide (Ac-D-W-F-K-A-F-Y-D-K-V-A-E-K-F-K-E-A-F-NH2, (SEQ ID NO:1)) has end blocking groups (Ac— and —NH2) that stabilize the class A amphipathic helix and dramatically increase efficacy (Venkatachalapathi et al. (1993) Proteins Structure Function Genet. 15: 349-359; Yancey et al. (1995) Biochemistry. 34: 7955-7965; Datta et al. (2001) J. Lipid Res. 42: 1096-1104; Anantharamaiah et al. (2007) J. Lipid Res., 48: 1915-1923). […] The required end (protecting) groups for 4F and for a number of other apoA-I mimetic peptides (Navab et al. (2010) Arterioscler. Thromb. Vasc. Biol. 30: 164-168) can only be added by chemical synthesis; living organisms cannot be engineered to make a molecule containing these end groups. Thus, the production of peptide for clinical use at these doses would not be practical because of the cost of producing this amount of peptide by solid phase synthesis.
Unfortunately, producing sufficient peptide to make therapy in humans practical was not likely because the 4F peptide requires end blocking groups that can only be added through chemical synthesis. […] This led us to seek alternative peptides synthesized from all L-amino acids that might be effective without end blocking groups.

Data set [15] relates to apoE−/− mice. The note with it: cited from earlier work. This is another data set of the same source.
Setting [16] is: doses of 4.5 and 45 mg/kg, oral or SQ.

For “DWLKAFYDKVAEKLKEAF [2F, apoA-I mimetic peptide with phenylalanine at positions 6 and 18]”, the “inhibition of LDL-induced MCP-1 production by cultured human artery wall cells” value (“inhibition” for short) in data set [1] is “not very effective”. For the same substance, in [2], the “diet induced atherosclerosis in mice” value is listed as “failed to decrease”.

Turning to “Ac-D-W-F-K-A-F-Y-D-K-V-A-E-K-F-K-E-A-F-NH2 [D-4F] (Ac-[dD][dW][dF][dK][dA][dF][dY][dD][dK][dV][dA][dE][dK][dF][dK][dE][dA][dF]-NH2)”, in data set [3], the “intact peptide in plasma after oral administration” value was “intact peptide identified”; the “inflammatory properties of HDL and LDL in a cell-based assay” value was “dramatically and significantly improved”. Besides, the “clearance from tissues, particularly liver and kidney” value in [4] is recorded as “delayed clearance”. Besides, in [5] (oral doses of 0.43 and 1.43 mg/kg), the “HDL inflammatory index (HII)” value is listed as “not effective”. The “HDL inflammatory index (HII)” value in data set [5] (oral doses of 4.3 and 7.14 mg/kg) is on record as “significantly improved”. Besides, in [6], the aortic atherosclerosis entry was “significantly decreased”; the “hepatic content of free arachidonic acid and free oxidized fatty acids” value is given as “significantly decreased”; the “other plasma lipid or lipoprotein levels” value is on record as “without affecting”. In addition, the “efficacy of L-4F and D-4F by injection” value in data set [7] was “identical”. Besides, the “changes in SAA, triglycerides, HDL-cholesterol and paroxonase activity induced by feeding 15-HETE in chow” value in [8] (SQ D-4F, chow without WD) is “significantly ameliorated”. In data set [8] (SQ or oral), the HDL-cholesterol result was “increased”, the “plasma SAA levels” value is “reduced” and the plasma triglyceride levels entry is recorded as “reduced”. Also, in data set [8] (SQ or orally), the “levels of 20-HETE” value is given as “unchanged”; the “levels of free metabolites of arachidonic and linoleic acids in intestine, liver and hepatic bile” value is given as “significantly reduced”. In addition, in data set [9], the “expression of enzymes involved in the formation of LPA” value is given as “none of the enzymes involved in the formation of LPA changed their expression significantly”. Moreover, the “reduction of aortic atherosclerosis” value in [10] (45 mg/kg/day, Western diet, orally or SQ) is listed as about 50%. Further, in data set [10] (45 mg/kg/day, Western diet), the “plasma levels of SAA” value is given as “significantly reduced” and the “plasma levels of lysophosphatidic acid” value is listed as “significantly reduced”. Also, in [10] (doses of 0.15 or 0.45 mg/kg), the HDL inflammatory index entry is listed as “did not” and the “plasma serum amyloid A (SAA) levels” value is recorded as “did not”. Further, in data set [10] (setting [16]), the HDL inflammatory index entry is on record as “significantly reduced” and the “plasma serum amyloid A (SAA) levels” value is on record as “significantly reduced”.

On to “DWLKAFYDKFFEKFKEFF [6F, D-W-L-K-A-F-Y-D-K-F-F-E-K-F-K-E-F-F]”, for which the “6F peptide in the plasma (not detected; lower limit of detection)” value in [11] (~2 hours after eating 900 μg of 6F in transgenic 6F tomato powder) is under 100 ng/mL. Further, the “intact 6F peptide in the small intestine (Mean±SD)” value in [11] (~2 hours after eating 900 μg of 6F in transgenic 6F tomato powder in 2 grams of WD, n=6) is recorded as 15.6±7.4 μg 6F per 200 mg small intestine.

Take “Ac-D-W-F-K-A-F-Y-D-K-V-A-E-K-F-K-E-A-F-NH2 (Ac-DWFKAFYDKVAEKFKEAF-NH2) [4F]”: in data set [12] (mouse, in vivo), the “number of tumor nodules” value is given as “reduction” and the tumor volume result is reported as “significant reduction”. Also, in data set [1], the “inhibition” value was “highly effective” and the “inhibiting monocyte chemotactic activity production by human artery wall cells exposed to human LDL” value is reported as “indistinguishable”. In addition, in data set [13] (after administration of the 4F peptide), the “plasma levels of free oxidized fatty acids (5-HETE, 15-HETE, 9-HODE, 13-HODE)” value is “significantly decreased”. In addition, in [13] (mouse, in vivo), the “esterified oxidized fatty acid levels” value is given as “unchanged” and the “plasma levels of 20-HETE” value is given as “did not decrease”. Further, the “fold less effective in vivo in the absence of the end groups” value in [14] (mice, without Ac- and -NH2 end groups, unpublished studies) is 25,000 fold.

Take “DWFKAFYDKFFEKFKEFF [7F, apoA-I mimetic peptide]”: in data set [1], the “inhibition” value is listed as “did not”.

With “DWLKAFYDKVFEKFKEFF [5F, apoA-I mimetic peptide]”, in [1], the “inhibition” value was “able to efficiently inhibit” and the “inhibiting monocyte chemotactic activity production by human artery wall cells exposed to human LDL” value is recorded as “indistinguishable”. Moreover, in data set [2], the “diet induced atherosclerosis in mice” value is “inhibiting atherosclerosis” and the “tumor angiogenesis in mice” value is listed as “inhibiting tumor angiogenesis”.

For the substance “DWFKAFYDKVAEKFKEAF [4F peptide without end blocking groups, 4F peptide lacking the Ac- and -NH2 end groups]”, in [14] (mouse models, data not shown), the “activity of the peptide without end blocking groups” value was “dramatically reduced”.

With “Ac-D-W-F-K-A-F-Y-D-K-V-A-E-K-F-K-E-A-F-NH2 [L-4F] (Ac-DWFKAFYDKVAEKFKEAF-NH2) [4F peptide synthesized from all L-amino acids]”, the LPA levels result in data set [12] (L-4F containing blocking groups, b323: in mouse chow, 100 mg/kg/day) is on record as “significantly reduced; also recorded: significantly decreased”. The tumor burden result in data set [12] (in mouse chow, 100 mg/kg/day) was “significantly decreased”. In [3], the “intact peptide in plasma after oral administration” value is given as “virtually no intact peptide”; the “inflammatory properties of HDL and LDL in a cell-based assay” value is on record as “not”. Besides, the “clearance from tissues, particularly liver and kidney” value in [4] is recorded as “this was not the case”. Besides, the “HDL inflammatory index (HII)” value in data set [5] (0.042-1.43 mg/kg IV or SQ) is on record as “no improvement”. Also, the aortic lesions entry in [15] (L-4F administered with niclosamide) was “induced lesion regression”. For the same substance, in [15] (in chow 10 mg/kg/day for six months with low dose statin in drinking water), the aortic atherosclerosis result was “did not significantly change”. The “efficacy of L-4F and D-4F by injection” value in data set [7] was “identical”.
